Results on nine molecules are retold here after patent US10245275B2 (ViiV HEALTHCARE UK (NO.4) LIMITED, priority 2014, dated 2019).

Structures are written as SMILES. Read-outs that look alike come from different tables or passages of the source. Where only a bound is given, the exact number is not on record here.

In assay [1] the test system is HIV-1 NL4-3 gag A364V virus. In words: microbe, parasite or virus in culture. The assay is classed as cell-based. The procedure: (§1) MT-2 cells and 293T cells were obtained from the NIH AIDS Research and Reference Reagent Program. MT-2 cells were propagated in RPMI 1640 media supplemented with 10% heat-inactivated fetal bovine serum, […]. The 293T cells were propagated in DMEM media supplemented with 10% heat-inactivated fetal bovine serum (FBS), 100 units/mL penicillin G and 100 μg/mL streptomycin. […] A recombinant NL4-3 virus, in which a section of the nef gene from NL4-3 was replaced with the Renilla luciferase gene, was used as a reference virus. In addition, residue Gag P373 was converted to P373S. […] Transfections were performed in 293T cells using LipofectAMINE PLUS from Invitrogen (Carlsbad, Calif.), according to manufacturer's instruction. The virus was titered in MT-2 cells using luciferase enzyme activity as a marker. Luciferase was quantitated using the Dual Luciferase kit from Promega (Madison, Wis.), with modifications to the manufacturer's protocol. The diluted Passive Lysis solution was pre-mixed with the re-suspended Luciferase Assay Reagent and the re-suspended Stop & Glo Substrate (2:1:1 ratio). Fifty (50) μL of the mixture was added to each aspirated well on assay plates and luciferase activity was measured immediately on a Wallac TriLux (Perkin-Elmer). Antiviral activities of inhibitors toward the recombinant virus were quantified by measuring luciferase activity in cells infected for 4-5 days with NLRluc recombinants in the presence serial dilutions of the inhibitor.
Both recombinant viruses were used as described above in the HIV cell culture assay for the NL4-3 virus.

Assay [2] relates to WT (wild-type HIV virus; recombinant NL4-3 virus). The assay is described as follows: microbe, parasite or virus in culture. In kind it is cell-based, HIV-1. The procedure: as §1
WT refers to wild-type HIV virus. […]

Setting [3] is: Human immunodeficiency virus 1, NL43, MT2, read-out: A364V (EC50, uM), Table 1 regular screen, class symbol.
Where [4] appears, read: Human immunodeficiency virus 1, NL43, MT2, read-out: WT (EC50, uM), Table 1 regular screen, class symbol.

Consider `C=C(C)[C@@H]1CC[C@]2(NCC(=O)N3CCC(S(C)(=O)=O)C3)CC[C@]3(C)[C@H](CC[C@@H]4[C@@]5(C)CC=C(C6=CC[C@](CF)(C(=O)O)CC6)C(C)(C)[C@@H]5CC[C@]43C)[C@@H]12` (stereo partly drawn) [Example 36, (1S)-1-(fluoromethyl)-4-((1R,3aS,5aR,5bR,7aR,11aS,11bR,13aR,13bR)-5a,5b, 8,8,11a-pentamethyl-3a-((2-(3-(methylsulfonyl)pyrrolidin-1-yl)-2-oxoethyl)amino)-1-(prop-1-en-2-yl)-2,3,3a,4,5,5a,5b,6,7,7a,8,11,11a,11b,12,13,13a,13b-octadecahydro-1H-cyclopenta[a]chrysen-9-yl)cyclohex-3-enecarboxylic acid], for which the EC50 in assay [1] (setting [3]) is more than 0.05 µM; in assay [2] (setting [4]) it was less than 0.05 µM.

Turning to `C=C(C)[C@@H]1CC[C@]2(NCC(=O)N3CCCS(=O)(=O)CC3)CC[C@]3(C)[C@H](CC[C@@H]4[C@@]5(C)CC=C(C6=CC[C@](CF)(C(=O)O)CC6)C(C)(C)[C@@H]5CC[C@]43C)[C@@H]12` [Example 34, (S)-4-((1R,3aS,5aR,5bR,7aR,11aS,11bR,13aR,13bR)-3a-((2-(1,1-dioxido-1,4-thiazepan-4-yl)-2-oxoethyl)amino)-5a,5b, 8,8,11a-pentamethyl-1-(prop-1-en-2-yl)-2,3,3a,4,5,5a,5b,6,7,7a,8,11,11a,11b,12,13,13a,13b-octadecahydro-1H-cyclopenta[a]chrysen-9-yl)-1-(fluoromethyl)cyclohex-3-enecarboxylic acid], the EC50 in assay [1] (setting [3]) and in assay [2] (setting [4]) was less than 0.05 µM throughout.

Consider `C=C(C)[C@@H]1CC[C@]2(NCCC3(O)CCOCC3)CC[C@]3(C)[C@H](CC[C@@H]4[C@@]5(C)CC=C(C6=CC[C@](CF)(C(=O)O)CC6)C(C)(C)[C@@H]5CC[C@]43C)[C@@H]12` [Example 2-12, (S)-1-(fluoromethyl)-4-((1R,3aS,5aR,5bR,7aR,11aS,11bR,13aR,13bR)-3a-((2-(4-hydroxytetrahydro-2H-pyran-4-yl)ethyl)amino)-5a,5b, 8,8,11a-pentamethyl-1-(prop-1-en-2-yl)-2,3,3a,4,5,5a,5b,6,7,7a,8,11,11a,11b,12,13,13a,13b-octadecahydro-1H-cyclopenta[a]chrysen-9-yl)cyclohex-3-enecarboxylic acid], for which the EC50 in assay [1] (Human immunodeficiency virus 1, NL43, MT2, read-out: A364V (EC50, uM), Table 1 regular screen, MT-2 cells, luciferase readout) turned out to be 0.348 µM; in assay [2] (Human immunodeficiency virus 1, NL43, MT2, read-out: WT (EC50, uM), Table 1 regular screen, MT-2 cells, luciferase readout), 0.00201 µM.

On to `C=C(C)[C@@H]1CC[C@]2(NCCC3(O)COC3)CC[C@]3(C)[C@H](CC[C@@H]4[C@@]5(C)CC=C(C6=CC[C@](CF)(C(=O)O)CC6)C(C)(C)[C@@H]5CC[C@]43C)[C@@H]12` [Example 2-10, (S)-1-(fluoromethyl)-4-((1R,3aS,5aR,5bR,7aR,11aS,11bR,13aR,13bR)-3a-((2-(3-hydroxyoxetan-3-yl)ethyl)amino)-5a,5b, 8,8,11a-pentamethyl-1-(prop-1-en-2-yl)-2,3,3a,4,5,5a,5b,6,7,7a,8,11,11a,11b,12,13,13a,13b-octadecahydro-1H-cyclopenta[a]chrysen-9-yl)cyclohex-3-enecarboxylic acid], for which the EC50 in assay [1] (setting [3]) is more than 0.05 µM; in assay [2] (setting [4]), less than 0.05 µM.

Turning to `C=C(C)[C@@H]1CC[C@]2(CNCCCN3CCS(=O)(=O)CC3)CC[C@]3(C)[C@H](CC[C@@H]4[C@@]5(C)CC=C(C6=CC[C@@](CF)(C(=O)O)CC6)C(C)(C)[C@@H]5CC[C@]43C)[C@@H]12` [Example 11, (R)-4-((1R,3aS,5aR,5bR,7aR,11aS,11bR,13aR,13bR)-3a-(((3-(1,1-dioxidothiomorpholino)propyl)amino)methyl)-5a,5b, 8,8,11a-pentamethyl-1-(prop-1-en-2-yl)-2,3,3a,4,5,5a,5b,6,7,7a,8,11,11a,11b,12,13,13a,13b-octadecahydro-1H-cyclopenta[a]chrysen-9-yl)-1-(fluoromethyl)cyclohex-3-enecarboxylic acid], the EC50 in assay [1] (setting [3]) and in assay [2] (setting [4]) was less than 0.05 µM throughout.

For the molecule `C=C(C)[C@@H]1CC[C@]2(NCC(=O)N3CCS(=O)(=O)CC3)CC[C@]3(C)[C@H](CC[C@@H]4[C@@]5(C)CC=C(C6=CC[C@](CF)(C(=O)O)CC6)C(C)(C)[C@@H]5CC[C@]43C)[C@@H]12` [Example 29, (S)-4-((1R,3aS,5aR,5bR,7aR,11aS,11bR,13aR,13bR)-3a-((2-(1,1-dioxidothiomorpholino)-2-oxoethyl)amino)-5a,5b,8,8,11a-pentamethyl-1-(prop-1-en-2-yl)-2,3,3a,4,5,5a,5b,6,7,7a,8,11,11a,11b,12,13,13a,13b-octadecahydro-1H-cyclopenta[a]chrysen-9-yl)-1-(fluoromethyl)cyclohex-3-enecarboxylic acid], the results for the EC50 in assay [1] (setting [3]) and in assay [2] (setting [4]) were more than 0.05 µM and less than 0.05 µM, respectively.

With `C=C(C)[C@@H]1CC[C@]2(NCCCN3CCCC3=O)CC[C@]3(C)[C@H](CC[C@@H]4[C@@]5(C)CC=C(C6=CC[C@](CF)(C(=O)O)CC6)C(C)(C)[C@@H]5CC[C@]43C)[C@@H]12` [Example 21, (S)-1-(fluoromethyl)-4-((1R,3aS,5aR,5bR,7aR,11aS,11bR,13aR,13bR)-5a,5b,8,8,11a-pentamethyl-3a-((3-(2-oxopyrrolidin-1-yl)propyl)amino)-1-(prop-1-en-2-yl)-2,3,3a,4,5,5a,5b,6,7,7a,8,11,11a,11b,12,13,13a,13b-octadecahydro-1H-cyclopenta[a]chrysen-9-yl)cyclohex-3-enecarboxylic acid], the EC50 in assay [1] (setting [3]) is more than 0.05 µM; in assay [2] (setting [4]) it was less than 0.05 µM.

Consider `C=C(C)[C@@H]1CC[C@]2(CNCC(C)(C)N3CCS(=O)(=O)CC3)CC[C@]3(C)[C@H](CC[C@@H]4[C@@]5(C)CC=C(C6=CC[C@](CF)(C(=O)O)CC6)C(C)(C)[C@@H]5CC[C@]43C)[C@@H]12` [Example 10, (S)-4-((1R,3aS,5aR,5bR,7aR,11aS,11bR,13aR,13bR)-3a-(((2-(1,1-dioxidothiomorpholino)-2-methylpropyl)amino)methyl)-5a,5b, 8,8,11a-pentamethyl-1-(prop-1-en-2-yl)-2,3,3a,4,5,5a,5b,6,7,7a,8,11,11a,11b,12,13,13a,13b-octadecahydro-1H-cyclopenta[a]chrysen-9-yl)-1-(fluoromethyl)cyclohex-3-enecarboxylic acid], for which the EC50 in assay [1] (setting [3]) and in assay [2] (setting [4]) was less than 0.05 µM each time.

For the molecule `C=C(C)[C@@H]1CC[C@]2(NCCC3CCS(=O)(=O)CC3)CC[C@]3(C)[C@H](CC[C@@H]4[C@@]5(C)CC=C(C6=CC[C@](CF)(C(=O)O)CC6)C(C)(C)[C@@H]5CC[C@]43C)[C@@H]12` [Example 7, (S)-4-((1R,3aS,5aR,5bR,7aR,11aS,11bR,13aR,13bR)-3a-((2-(1,1-dioxidotetrahydro-2H-thiopyran-4-yl)ethyl)amino)-5a,5b,8,8,11a-pentamethyl-1-(prop-1-en-2-yl)-2,3,3a,4,5,5a,5b,6,7,7a,8,11,11a,11b,12,13,13a,13b-octadecahydro-1H-cyclopenta[a]chrysen-9-yl)-1-(fluoromethyl)cyclohex-3-enecarboxylic acid], the figures for the EC50 in assay [1] (setting [3]) and in assay [2] (setting [4]) were more than 0.05 µM and less than 0.05 µM, respectively.

As a reminder, the EC50 is the concentration giving half of the maximal effect.
